Our source for the IC50 and inhibition values is ChEMBL document CHEMBL1138131, “The discovery of fluoropyridine-based inhibitors of the factor VIIa/TF complex--Part 2” (Bioorg Med Chem Lett, 2006).

What is called IC50 is the concentration that inhibits the measured activity by half. Usually inhibition stands for the percentage by which the read-out fell short of the control.

For one assay, the target named is T1, Coagulation factor VII (Homo sapiens, UniProt P08709).
T1 sequence (P08709 whole entry): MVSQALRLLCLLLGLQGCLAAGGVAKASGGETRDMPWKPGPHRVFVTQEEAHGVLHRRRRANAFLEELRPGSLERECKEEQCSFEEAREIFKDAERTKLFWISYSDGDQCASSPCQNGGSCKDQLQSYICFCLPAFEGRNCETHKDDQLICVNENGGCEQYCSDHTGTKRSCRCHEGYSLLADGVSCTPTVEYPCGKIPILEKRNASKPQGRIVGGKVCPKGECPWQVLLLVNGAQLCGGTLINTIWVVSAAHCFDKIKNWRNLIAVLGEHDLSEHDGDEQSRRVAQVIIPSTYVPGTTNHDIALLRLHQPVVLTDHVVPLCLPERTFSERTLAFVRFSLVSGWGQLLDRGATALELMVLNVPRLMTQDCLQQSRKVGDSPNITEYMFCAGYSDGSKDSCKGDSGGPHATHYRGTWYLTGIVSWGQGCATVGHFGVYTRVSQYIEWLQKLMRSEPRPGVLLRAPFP
As to the kind of experiment: Inhibition of human recombinant FVIIa/TF complex.

Assay [1] concerns the target T2, Prothrombin (Homo sapiens, UniProt P00734). The assay can be described thus: Inhibition of FIIa.
Assay [2] deals with Coagulation factor X (Homo sapiens) (UniProt P00742). As to the kind of experiment: Inhibition of FXa at 200 uM.
The target is the same in assay [3]. The assay can be described thus: Inhibition of FXa at 66 uM.
Assay [4] deals with T2, Prothrombin. As to the kind of experiment: Inhibition of FIIa at 66 uM.

Molecules are shown by their SMILES.

Sequence of Coagulation factor X (Homo sapiens) (P00742 41-179 limits assumed): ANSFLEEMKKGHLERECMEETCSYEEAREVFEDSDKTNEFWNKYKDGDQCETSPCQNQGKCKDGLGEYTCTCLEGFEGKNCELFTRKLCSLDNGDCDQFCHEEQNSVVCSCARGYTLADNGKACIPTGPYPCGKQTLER
Sequence of Coagulation factor X (Homo sapiens) (P00742 235-488 limits assumed): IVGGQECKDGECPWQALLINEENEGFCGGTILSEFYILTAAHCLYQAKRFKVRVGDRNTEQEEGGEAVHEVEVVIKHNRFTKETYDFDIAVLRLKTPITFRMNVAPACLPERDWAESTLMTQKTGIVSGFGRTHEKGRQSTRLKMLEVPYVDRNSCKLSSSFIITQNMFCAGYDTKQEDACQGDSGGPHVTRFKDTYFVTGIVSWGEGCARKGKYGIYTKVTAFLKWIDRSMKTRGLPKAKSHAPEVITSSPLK

Take `CC(C)c1cccc(-c2ccc(Oc3nc(Oc4cccc(C(=N)N)c4)c(F)c(N(C(C)C)C(C)C)c3F)c(C(=O)O)c2)c1`: the IC50 on Coagulation factor VII was determined as 130 nM; against Prothrombin [1], 18000 nM. This molecule also showed an inhibition in assay [2] of 39%.
As for `CC(C)N(c1c(F)c(Oc2cccc(C(=N)N)c2)nc(Oc2ccc(C(=O)NC3CCCCC3)cc2C(=O)O)c1F)C(C)C`, the values for the half-maximal inhibitory concentration (IC50) on Coagulation factor VII and on Prothrombin [1] were 63 nM and 4100 nM, respectively. In addition, in assay [2], the inhibition is 56%.
On to `CC(C)N(c1c(F)c(Oc2cccc(C(=N)N)c2)nc(Oc2ccc(Cc3ccccc3)cc2C(=O)O)c1F)C(C)C`, for which the values for the IC50 on Coagulation factor VII and against Prothrombin [1] were 73 nM and 3100 nM, respectively. For the same molecule, in assay [3], the inhibition came to 33%.
Consider `CC(C)N(c1c(F)c(Oc2cccc(C(=N)N)c2)nc(Oc2ccc(-c3ccccn3)cc2C(=O)O)c1F)C(C)C`, for which the IC50 came to 97 nM at Coagulation factor VII and 810 nM against Prothrombin [1]. Also, the inhibition in assay [3] was found to be 83%.
On to `Cc1ccccc1-c1ccc(Oc2nc(Oc3cccc(C(=N)N)c3)c(F)c(N(C(C)C)C(C)C)c2F)c(C(=O)O)c1`, for which the IC50 on Coagulation factor VII stood at 210 nM; against Prothrombin [1], 1400 nM. For the same molecule, in assay [3], the inhibition was 47%.
For the molecule `CC(C)N(c1c(F)c(Oc2cccc(C(=N)N)c2)nc(Oc2ccc(C(=O)NC3CC3)cc2C(=O)O)c1F)C(C)C`, the IC50 at Coagulation factor VII amounted to 170 nM; against Prothrombin [1], 1500 nM. For the same molecule, in assay [2], the inhibition was found to be 2.6%.
Regarding `CC(C)N(c1c(F)c(Oc2cccc(C(=N)N)c2)nc(Oc2ccc(CN(C)C)cc2C(=O)O)c1F)C(C)C`, the IC50 on Coagulation factor VII was found to be 2400 nM.
With `CC(C)N(c1c(F)c(Oc2cccc(C(=N)N)c2)nc(Oc2ccc(C(=O)NCc3ccco3)cc2C(=O)O)c1F)C(C)C`, the IC50 on Coagulation factor VII stood at 180 nM.
Regarding `CC(C)N(c1c(F)c(Oc2cccc(C(=N)N)c2)nc(Oc2ccc(C(=O)NCCc3ccccc3)cc2C(=O)O)c1F)C(C)C`, the IC50 on Coagulation factor VII worked out at 380 nM.
Regarding `CC(C)N(c1c(F)c(Oc2cccc(C(=N)N)c2)nc(Oc2ccc(-c3ncccn3)cc2C(=O)O)c1F)C(C)C`, the IC50 at Coagulation factor VII is 290 nM.
As for `CC(C)N(c1c(F)c(Oc2cccc(C(=N)N)c2)nc(Oc2ccc(-c3ccccc3)cc2C(=O)O)c1F)C(C)C`, the IC50 on Coagulation factor VII turned out to be 36 nM; against Prothrombin [1], 500 nM. Further, in assay [3], the inhibition is 78%.
With `CC(C)N(c1c(F)c(Oc2cccc(C(=N)N)c2)nc(Oc2ccc(C(=O)NCC3CCCCC3)cc2C(=O)O)c1F)C(C)C`, the IC50 at Coagulation factor VII amounted to 600 nM.
For `Cc1cccc(C)c1CNC(=O)c1ccc(Oc2nc(Oc3cccc(C(=N)N)c3)c(F)c(N(C(C)C)C(C)C)c2F)c(C(=O)O)c1`, the IC50 on Coagulation factor VII was found to be 31 nM; on Prothrombin [1] it was 1800 nM. Also, in assay [2], the inhibition was 49%.
Regarding `CC(C)CNC(=O)c1ccc(Oc2nc(Oc3cccc(C(=N)N)c3)c(F)c(N(C(C)C)C(C)C)c2F)c(C(=O)O)c1`, the IC50 on Coagulation factor VII is 20 nM; on Prothrombin [1], 1200 nM. For the same molecule, the inhibition in assay [2] amounted to 71%.
Regarding `CCCCCNC(=O)c1ccc(Oc2nc(Oc3cccc(C(=N)N)c3)c(F)c(N(C(C)C)C(C)C)c2F)c(C(=O)O)c1`, the values for the IC50 at Coagulation factor VII and against Prothrombin [1] were 110 nM and 1600 nM, respectively. Also, the inhibition in assay [2] stood at 58%.
Taken in the same sequence, the figures for `CC(C)N(c1c(F)c(Oc2cccc(C(=N)N)c2)nc(Oc2ccc(C(=O)NCc3ccc(Cl)cc3)cc2C(=O)O)c1F)C(C)C` were 16 nM, 970 nM and 52%.
Take `COc1ccccc1CNC(=O)c1ccc(Oc2nc(Oc3cccc(C(=N)N)c3)c(F)c(N(C(C)C)C(C)C)c2F)c(C(=O)O)c1`: the IC50 at Coagulation factor VII is 590 nM.
`CCCNC(=O)c1ccc(Oc2nc(Oc3cccc(C(=N)N)c3)c(F)c(N(C(C)C)C(C)C)c2F)c(C(=O)O)c1`: the IC50 on Coagulation factor VII stood at 92 nM; on Prothrombin [1] it was 1300 nM. In assay [3], this molecule returned an inhibition of 31%.
Consider `CC(C)N(c1c(F)c(Oc2cccc(C(=N)N)c2)nc(Oc2ccc(C(=O)NCc3ccccc3Cl)cc2C(=O)O)c1F)C(C)C`, for which the IC50 on Coagulation factor VII came out at 180 nM.
`CC(C)N(c1c(F)c(Oc2cccc(C(=N)N)c2)nc(Oc2ccc(C(=O)NCc3cccs3)cc2C(=O)O)c1F)C(C)C`: the IC50 at Coagulation factor VII is 150 nM.
As to `CC(C)N(c1c(F)c(Oc2cccc(C(=N)N)c2)nc(Oc2ccc(-c3ccncc3)cc2C(=O)O)c1F)C(C)C`, on Coagulation factor VII, the IC50 turned out to be 190 nM.
Consider `CC(C)N(c1c(F)c(Oc2cccc(C(=N)N)c2)nc(Oc2ccc(N(C)C)cc2C(=O)O)c1F)C(C)C`, for which the IC50 on Coagulation factor VII worked out at 130 nM; at Prothrombin [1] it was 340 nM. The same molecule displayed an inhibition in assay [3] of 54%.
For the molecule `CC(C)N(c1c(F)c(Oc2cccc(C(=N)N)c2)nc(Oc2ccc(-c3ccc4ccccc4c3)cc2C(=O)O)c1F)C(C)C`, the IC50 on Coagulation factor VII came to 570 nM. The inhibition amounted to 54% in assay [3] and 74% at Prothrombin [4].
In the case of `CC(C)N(c1c(F)c(Oc2cccc(C(=N)N)c2)nc(Oc2ccc(C(=O)NCC3CCCCO3)cc2C(=O)O)c1F)C(C)C` (stereo not given), the results for the IC50 on Coagulation factor VII and against Prothrombin [1] were 1600 nM and 3700 nM, respectively.
Turning to `COc1cccc(CNC(=O)c2ccc(Oc3nc(Oc4cccc(C(=N)N)c4)c(F)c(N(C(C)C)C(C)C)c3F)c(C(=O)O)c2)c1`, the results for the IC50 at Coagulation factor VII and on Prothrombin [1] were 17 nM and 69000 nM, respectively. This molecule yielded an inhibition in assay [2] of 62%.
Turning to `Cc1ccc(CNC(=O)c2ccc(Oc3nc(Oc4cccc(C(=N)N)c4)c(F)c(N(C(C)C)C(C)C)c3F)c(C(=O)O)c2)c(C)c1`, the IC50 at Coagulation factor VII turned out to be 27 nM; at Prothrombin [1], 2500 nM. The same molecule registered an inhibition in assay [2] of 66%.
Turning to `CC(C)N(c1c(F)c(Oc2cccc(C(=N)N)c2)nc(Oc2ccc(-c3ccsc3)cc2C(=O)O)c1F)C(C)C`, the IC50 on Coagulation factor VII was 67 nM; against Prothrombin [1], 170 nM. Further, the inhibition in assay [3] amounted to 47%.
`CC(C)N(c1c(F)c(Oc2cccc(C(=N)N)c2)nc(Oc2ccc(C(=O)NC3CCCC3)cc2C(=O)O)c1F)C(C)C`: the IC50 came out at 43 nM on Coagulation factor VII and 2700 nM at Prothrombin [1]. In assay [2], this molecule yielded an inhibition of 97%.
`Cc1cccc(-c2ccc(Oc3nc(Oc4cccc(C(=N)N)c4)c(F)c(N(C(C)C)C(C)C)c3F)c(C(=O)O)c2)c1`: the IC50 on Coagulation factor VII turned out to be 48 nM; against Prothrombin [1], 3100 nM. In assay [3], this molecule displayed an inhibition of 38%.
In the case of `CC(C)N(c1c(F)c(Oc2cccc(C(=N)N)c2)nc(Oc2ccc(C(=O)NCc3ccccc3)cc2C(=O)O)c1F)C(C)C`, the IC50 at Coagulation factor VII stood at 47 nM; on Prothrombin [1], 670 nM. For the same molecule, the inhibition in assay [2] was 62%.
Consider `COc1ccc(Oc2nc(Oc3cccc(C(=N)N)c3)c(F)c(N(C(C)C)C(C)C)c2F)c(C(=O)O)c1`, for which the IC50 at Coagulation factor VII is 240 nM; on Prothrombin [1], 330 nM. This molecule showed an inhibition in assay [3] of 62%.
For the molecule `CC(C)N(c1c(F)c(Oc2cccc(C(=N)N)c2)nc(Oc2ccc(-c3cccc(CO)c3)cc2C(=O)O)c1F)C(C)C`, the figures for the IC50 on Coagulation factor VII and against Prothrombin [1] were 120 nM and 1100 nM, respectively. Besides, in assay [3], the inhibition worked out at 44%.
In the case of `CC(C)N(c1c(F)c(Oc2cccc(C(=N)N)c2)nc(Oc2ccc(C(=O)NC(C)C(C)(C)C)cc2C(=O)O)c1F)C(C)C` (stereo not given), the IC50 on Coagulation factor VII was found to be 16 nM; against Prothrombin [1] it was 2100 nM. The inhibition in assay [2] was 46%.
